Assay results as given in patent publication US20220251096A1, “7,8-DIHYDRO-4H-PYRAZOLO[4,3-c]AZEPINE-6-ONE COMPOUNDS” (Eli Lilly and Company, priority 2019, published 2022).

Experiments:
SW780 = experiment: Cell growth inhibition assay, SW780; type: cell-based; conditions: Homo sapiens, 168 h; SW780, 7 days
Method: (§1) Tumor cell lines are plated onto 96-well, black wall poly-D-lysine plates (Corning #354640), and incubated at 37° C., 5% CO2 for 18-24 hours. Compound was added at 1:3 dilutions in DMSO and cells were incubated at 37° C., 5% CO2 for 7 days. For adherent cell lines, cells were fixed and stained with propidium iodide and scanned on Acumen (channel 3 setting). For suspension cell lines, cell growth was monitored using Cell Titer-Glo reagent.

BRD4 (BD2) = biological target: T1, BRD4 (BD2) (Homo sapiens, UniProt O60885); experiment: BromoKdELECT platform assay, BRD4 (BD2); type: binding; conditions: 11 points dose-response, mean from a duplicate experiment
T1 construct: BRD4 (Bromodomain 1 (BD1) and Bromodomain 2 (BD2)); purchased DiscoverX (BromoKdELECT service)
Excerpt: (§2) The purpose of this assay is to evaluate the in vitro target engagement and selectivity (https://www.discoverx.com/services/drug-discovery-development-services/epigenetic-profiling/bromoscan-epigenetic-profiling/bromokdelect). Assay measurement is based on the amount of bromodomain captured in test and control samples by using quantitative PCR technology that detects the DNA label associated to bromodomain. Compounds that bind the bromodomain active site prevents its binding to the immobilized ligand and will reduce the amount of bromodomain captured on the solid support. […] Thus, compound activity is monitored by measuring the amount of bromodomain captured in test versus control samples by using qPCR. Binding affinity for test compound-bromodomain interactions are calculated by measuring the amount of bromodomain captured on the solid support as a function of the test compound concentration.
(§3) Binding affinity (Kd) of the compounds of Examples 1 and 2 towards CREBBP, EP300 and BRD4 (Bromodomain 1 (BD1) and Bromodomain 2 (BD2)) are determined in an 11 points dose-response study (See Table 5). Data is represented as a mean from a duplicate experiment.

hBRD4 = biological target: T2, hBRD4 (Homo sapiens, UniProt O60885); experiment: NanoBRET assay, BRD4 full length; type: cell-based; conditions: NanoBRET in HEK293 cells, read after overnight incubation; mean ± Standard Deviation
T2 construct: NanLuc-BRD4 Full Length (Promega, 0.0002 μg); host or cells: HEK293
Method: HEK293 cells are seeded at 10×10^6 cells/16 mL in DMEM+10% FBS in a T-75 flask and left to attach for 4-6 hours. Transfection reagents are diluted in Opti-MEM media (no phenol red, no FBS) and 8% Fugene HD containing expression plasmids at a final concentration of the following: 1: Histone H3.3 HaloTag DNA (Promega, 0.02 μg)+NanoLuc-CREBBP-BD (Promega, 0.0002 μg); 2: Histone H3.3 HaloTag DNA (Promega, 0.02 μg)+NanoLuc-EP300-BD (Promega, 0.0002 μg); 3: Histone H4 HaloTag DNA (0.02 μg)+NanLuc-BRD4 Full Length (Promega, 0.0002 μg). The DNA/Fugene mixtures are left at RT for 10 minutes. Transfection mix (800 μL) is added per flask and immediately swirled to cover the cells. The plates are returned to the incubator for overnight transfection. The next day, HaloTag NanoBRET 618 ligand (20 μL/vial of 0.1 mM) is thawed at RT. […]
Compound is serially diluted and added to 96-well plates (2 10 mM, 3-fold dilutions, 100% DMSO). […] CREBBP/EP300 plates are read after 4 hours incubation and the BRD4 plates are read after overnight incubation. To develop plates for reading, allow all reagents to reach RT before use. […] The plate is shaken for 1 minute to mix and within 10 minutes, read on Envision plate reader with the following settings: Mirror: Luminescence; Emission filter: E600LP; 2nd emission filter: D460/50; Measurement height (mm): 6.5; Measurement time (s): 0.2 second.

EP300 = biological target: T3, EP300 (Homo sapiens, UniProt Q09472); experiment: BromoKdELECT platform assay, EP300; type: binding; set-up: purchased DiscoverX (BromoKdELECT service); conditions: 11 points dose-response, mean from a duplicate experiment
T3 sequence (Q09472 1049-1156 limits assumed): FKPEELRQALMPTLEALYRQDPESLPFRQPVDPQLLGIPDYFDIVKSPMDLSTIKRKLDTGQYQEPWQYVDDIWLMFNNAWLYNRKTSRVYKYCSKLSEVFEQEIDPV
Excerpt: as §2, §3

Kasumi (AML1-ETO) = experiment: Cell growth inhibition assay, Kasumi (AML1-ETO); type: cell-based; conditions: 168 h, 7 days
Method: as §1

- IC50 (SW780): 4 nM
- Kd (BRD4 (BD2)): 6800 nM
- IC50 (hBRD4): 11800 nM
- Kd (EP300): 0.095 nM
Structure (SMILES): CCNC(=O)c1ccc(-c2cc3cccc(-c4nn(C)c5c4CN(C)C(=O)CC5)c3cn2)cn1 [Example 2, 5-[8-(1,5-Dimethyl-6-oxo-7,8-dihydro-4H-pyrazolo[4,3-c]azepin-3-yl)-3-isoquinolyl]-N-ethyl-pyridine-2-carboxamide]
- IC50 (Kasumi (AML1-ETO)): 8 nM
